This note sets out measurements from US11999727B2 (Tango Therapeutics, Inc., priority 2020, dated 2024).

The subject of experiment [1] is HAP1 MTAP-intact cell line. The experiment in a line: SDMA in-cell western assay, HAP1 MTAP-intact. It is filed as cell-based. As to conditions: Homo sapiens, HAP1, SDMA in-cell western, HAP1 MTAP-intact; read-out: MTAP HAP1 intact IC50. A digest of the protocol:
(§1)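 Compounds were tested in HAP1 cells differing only in MTAP status (endogenous expression versus null). Cellular SDMA levels were then measured by in-cell western, giving an IC50 in each background.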

Experiment [2] relates to HAP1 MTAP-deleted cell line. The experiment in a line: Viability assay, MTAP-deleted cell line. As to conditions: Homo sapiens, HAP1, viability assay, MTAP-deleted cell line; read-out: HAP1 MTAP deleted viability. It is filed as cell-based. From the text:
Table 1 additionally indicates IC50 values in a viability assay for the MTAP-deleted cell line (column 10), indicating the effect of treatment with compound on cell survival.

Experiment [3] concerns the target T1, PRMT5 (Homo sapiens, UniProt O14744).
T1 construct: purchased Viva (custom protein)
The experiment in a line: PRMT5 biochemical IC50 assay with MTA as cofactor. To be noted: PRMT5, MTA as cofactor; read-out: MTA IC50.

The target in experiment [4] is T1, PRMT5. The experiment in a line: PRMT5 biochemical IC50 assay with no cofactor. As to conditions: PRMT5, no cofactor; read-out: No Cofactor/rel IC50. From the text:
Table 1 indicates IC50 values (μM) against PRMT5 for exemplary compounds in the presence of SAM as cofactor, with no cofactor, and with MTA as cofactor, respectively (columns 4-6). […] Ki values can be calculated from the IC50 values as described in the Examples section. As detailed in the Examples section, for the assay performed in the presence of SAM, IC50=Ki×1.5 (Ki=IC50/1.5).

Experiment [5] deals with T1, PRMT5. The experiment in a line: PRMT5 biochemical IC50 assay with SAM as cofactor. To be noted: PRMT5, SAM as cofactor; read-out: SAM IC50.
Experiment [6] deals with HAP1 MTAP-deleted cell line. The experiment in a line: SDMA in-cell western assay, HAP1 MTAP-deleted. It is filed as cell-based. To be noted: for IC50: Homo sapiens, HAP1, SDMA in-cell western, HAP1 MTAP-deleted; for MTAP intact/deleted ratio: SDMA in-cell western. A digest of the protocol:
as §1

Setting [7] is: read-out: HAP 1 MTAP deleted IC50.
Where [8] appears, read: IC50 ratio HAP1 MTAP-intact / HAP1 MTAP-deleted.
The mark [9] stands for this setting: read-out: HAP1 MTAP deleted IC50.
The mark [10] stands for this setting: IC50 ratio HAP1 MTAP-intact vs HAP1 MTAP-deleted.

Molecules are shown by their SMILES.

T1 sequence (O14744 whole entry): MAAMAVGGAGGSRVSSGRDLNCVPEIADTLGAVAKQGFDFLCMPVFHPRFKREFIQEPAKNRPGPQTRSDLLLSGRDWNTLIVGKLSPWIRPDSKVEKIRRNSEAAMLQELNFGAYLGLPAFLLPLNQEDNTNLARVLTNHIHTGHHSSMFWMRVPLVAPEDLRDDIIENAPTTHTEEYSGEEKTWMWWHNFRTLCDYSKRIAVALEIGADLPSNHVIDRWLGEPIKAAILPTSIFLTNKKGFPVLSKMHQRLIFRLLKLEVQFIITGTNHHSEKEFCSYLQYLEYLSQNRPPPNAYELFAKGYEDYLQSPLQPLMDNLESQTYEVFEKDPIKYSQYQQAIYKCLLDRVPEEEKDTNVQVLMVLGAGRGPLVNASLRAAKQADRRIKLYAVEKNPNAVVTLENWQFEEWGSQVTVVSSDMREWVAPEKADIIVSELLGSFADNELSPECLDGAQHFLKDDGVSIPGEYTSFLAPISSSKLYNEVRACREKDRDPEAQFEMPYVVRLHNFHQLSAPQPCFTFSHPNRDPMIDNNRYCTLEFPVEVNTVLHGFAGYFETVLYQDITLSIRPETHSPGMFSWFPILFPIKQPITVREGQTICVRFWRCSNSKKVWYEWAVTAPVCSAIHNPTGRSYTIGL
T1 sequence (Q9BQA1 whole entry partner): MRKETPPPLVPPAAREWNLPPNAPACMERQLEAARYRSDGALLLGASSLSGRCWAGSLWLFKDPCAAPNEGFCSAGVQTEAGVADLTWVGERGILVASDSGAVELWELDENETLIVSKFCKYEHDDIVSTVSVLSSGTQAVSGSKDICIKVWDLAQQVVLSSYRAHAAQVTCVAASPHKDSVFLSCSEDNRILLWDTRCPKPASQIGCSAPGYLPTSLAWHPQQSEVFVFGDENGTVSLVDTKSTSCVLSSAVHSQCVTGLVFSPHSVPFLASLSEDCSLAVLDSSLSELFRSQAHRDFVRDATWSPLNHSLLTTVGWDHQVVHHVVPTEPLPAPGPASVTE

Turning to `Cc1cc(NC(=O)C(=O)N2C[C@H](C)CC[C@H]2c2ccc(-c3nccs3)cn2)cnc1N` (racemic) [Compound 991], the IC50 in experiment [1] was above 1000 nM; in experiment [2] it was 1000 to 10000 nM; on PRMT5 [3], 50 to 500 nM; on PRMT5 [4], 50 to 500 nM; on PRMT5 [5] it was 50 to 500 nM; in experiment [6] (setting [7]), 100 to 1000 nM. Also, the MTAP intact/deleted ratio result in experiment [6] (setting [8]) is given as “C (an IC50 ratio of less than 3 fold)”.

As for `Cc1cc(NC(=O)C(=O)N2C[C@H](C)CC[C@H]2c2ccc3[nH]c(N)nc3c2)cnc1C` (racemic) [Compound 992], the IC50 in experiment [1] was above 1000 nM; in experiment [2], 1000 to 10000 nM; on PRMT5 [3] it was below 50 nM; on PRMT5 [4], 50 to 500 nM; at PRMT5 [5], 50 to 500 nM; in experiment [6] (setting [7]), below 100 nM. Moreover, the MTAP intact/deleted ratio entry in experiment [6] (setting [8]) was “A (an IC50 ratio greater than or equal to 10 fold)”.

Consider `Cc1ccc([C@@H]2CC[C@@H](C)CN2C(=O)C(=O)Nc2cnc(N)c(C)c2)nc1` (racemic) [Compound 1005, N-(6-Amino-5-methyl-3-pyridyl)-2-[(2R,5S)-5-methyl-2-(5-methyl-2-pyridyl)-1-piperidyl]-2-oxo-acetamide], for which the IC50 in experiment [1] is above 1000 nM; in experiment [2], 1000 to 10000 nM; on PRMT5 [3], 50 to 500 nM; on PRMT5 [4], 50 to 500 nM; on PRMT5 [5], above 500 nM; in experiment [6] (setting [7]), 100 to 1000 nM. Also, the MTAP intact/deleted ratio entry in experiment [6] (setting [8]) was “A (an IC50 ratio greater than or equal to 10 fold)”.

In the case of `[2H][C@]1(c2ccc(F)cc2)CC[C@H](C)CN1C(=O)C(=O)Nc1cncc(C(N)=O)c1` (racemic) [Compound 1008, 5-(2-(2-(4-fluorophenyl)-5-methylpiperidin-1-yl-2-d)-2-oxoacetamido)nicotinamide], the IC50 in experiment [1] was above 1000 nM; in experiment [2], 1000 to 10000 nM; at PRMT5 [3], 50 to 500 nM; on PRMT5 [4], 50 to 500 nM; at PRMT5 [5], 50 to 500 nM; in experiment [6] (setting [7]) it was 100 to 1000 nM. For the same molecule, the MTAP intact/deleted ratio result in experiment [6] (setting [8]) is recorded as “A (an IC50 ratio greater than or equal to 10 fold)”.

`[2H]c1c([2H])c([C@@]2([2H])CC[C@H](C)CN2C(=O)C(=O)Nc2cncc(C(N)=O)c2)c([2H])c([2H])c1F` (racemic) [Compound 1010, 5-(2-(2-(4-fluorophenyl-2,3,5,6-d4)-5-methylpiperidin-1-yl-2-d)-2-oxoacetamido)nicotinamide]: the IC50 is above 1000 nM in experiment [1]; 1000 to 10000 nM in experiment [2]; 50 to 500 nM at PRMT5 [3]; 50 to 500 nM at PRMT5 [4]; 50 to 500 nM on PRMT5 [5]; 100 to 1000 nM in experiment [6] (setting [7]). In experiment [6] (setting [8]), the MTAP intact/deleted ratio result was “A (an IC50 ratio greater than or equal to 10 fold)”.

Take `Cc1cc(NC(=O)C(=O)N2C[C@H](C)CC[C@H]2c2ccc(F)c3[nH]ncc23)cnc1N` (racemic) [Compound 1019]: the IC50 is above 1000 nM in experiment [1]; 1000 to 10000 nM in experiment [2]; 50 to 500 nM at PRMT5 [3]; 50 to 500 nM at PRMT5 [4]; 50 to 500 nM on PRMT5 [5]; below 100 nM in experiment [6] (setting [7]). In addition, in experiment [6] (setting [8]), the MTAP intact/deleted ratio entry is given as “A (an IC50 ratio greater than or equal to 10 fold)”.

Turning to `Cc1cc(NC(=O)C(=O)N2C[C@H](C)CC[C@H]2c2cncc(Cl)c2)cnc1N` (racemic) [Compound 1025, N-(6-amino-5-methyl-3-pyridyl)-2-[(2R,5S)-2-(5-chloro-3-pyridyl)-5-methyl-1-piperidyl]-2-oxo-acetamide], the IC50 was above 1000 nM in experiment [1]; 1000 to 10000 nM in experiment [2]; 50 to 500 nM at PRMT5 [3]; 50 to 500 nM on PRMT5 [4]; above 500 nM on PRMT5 [5]; below 100 nM in experiment [6] (setting [7]). Further, in experiment [6] (setting [8]), the MTAP intact/deleted ratio entry is “A (an IC50 ratio greater than or equal to 10 fold)”.

Regarding `CC[C@@H]1CC[C@@H](c2cn[nH]c2)N(C(=O)C(=O)Nc2cnc(N)c(C)c2)C1` (racemic) [Compound 1032, N-(6-amino-5-methyl-3-pyridyl)-2-[(2R,5S)-5-ethyl-2-(1H-pyrazol-4-yl)-1-piperidyl]-2-oxo-acetamide], the IC50 in experiment [1] was 100 to 1000 nM; in experiment [2], 1000 to 10000 nM; on PRMT5 [3], 50 to 500 nM; on PRMT5 [4], 50 to 500 nM; on PRMT5 [5], 50 to 500 nM; in experiment [6] (setting [7]), below 100 nM. The MTAP intact/deleted ratio result in experiment [6] (setting [8]) is “B (an IC50 ratio greater than or equal to 3 fold but lower than 10 fold)”.

In the case of `CCc1cc(NC(=O)C(=O)N2C[C@@H](C)CC[C@@H]2c2ccc3nn([C@H]4CCN(C)C4)cc3c2)cnc1N` (racemic) [Compound 1091, N-(6-Amino-5-ethyl-3-pyridyl)-2-oxo-2-[rac-(2R,5S)-5-methyl-2-[2-[rac-(3S)-1-methylpyrrolidin-3-yl]indazol-5-yl]-1-piperidyl]acetamide], the IC50 in experiment [1] was 100 to 1000 nM; in experiment [2], below 1000 nM; on PRMT5 [3], below 50 nM; at PRMT5 [4], below 50 nM; on PRMT5 [5] it was 50 to 500 nM; in experiment [6] (setting [9]), below 100 nM. Also, the MTAP intact/deleted ratio result in experiment [6] (setting [10]) was “A (an IC50 ratio greater than or equal to 10 fold)”.

Take `CCc1cc(NC(=O)C(=O)N2C[C@@H](C)[C@@H](OC(C)C)C[C@@H]2c2ccc3scnc3c2)cnc1N` (racemic) [Compound 1094, N-(6-Amino-5-ethyl-3-pyridyl)-2-[(2S,4R,5S)-2-(1,3-benzothiazol-5-yl)-4-isopropoxy-5-methyl-1-piperidyl]-2-oxo-acetamide]: the IC50 in experiment [1] was 100 to 1000 nM; in experiment [2], below 1000 nM; on PRMT5 [3] it was 50 to 500 nM; at PRMT5 [4] it was 50 to 500 nM; at PRMT5 [5], 50 to 500 nM; in experiment [6] (setting [9]), below 100 nM. Further, the MTAP intact/deleted ratio result in experiment [6] (setting [10]) is recorded as “A (an IC50 ratio greater than or equal to 10 fold)”.

Regarding `CCc1cc(NC(=O)C(=O)N2C[C@@H](C)CC[C@@H]2c2ccc3cn(C4CCN(C)CC4)nc3c2)cnc1N` (racemic) [Compound 1096, N-(6-Amino-5-ethyl-3-pyridyl)-2-oxo-2-[rac-(2R,5S)-5-methyl-2-[2-(1-methyl-4-piperidyl)indazol-6-yl]-1-piperidyl]acetamide], the IC50 in experiment [1] is below 100 nM; in experiment [2] it was below 1000 nM; at PRMT5 [3], below 50 nM; on PRMT5 [4], below 50 nM; on PRMT5 [5], below 50 nM; in experiment [6] (setting [9]), below 100 nM. Also, the MTAP intact/deleted ratio entry in experiment [6] (setting [10]) is recorded as “A (an IC50 ratio greater than or equal to 10 fold)”.

For `CCc1cc(NC(=O)C(=O)N2CC(C)CCC2c2ccc3sc(C4CCN(C)CC4C)nc3c2)cnc1N` (racemic) [Compound 1098, N-(6-amino-5-ethyl-3-pyridyl)-2-oxo-2-[rac-(2R,5S)-5-methyl-2-[2-[rac-(3R,4S)-1,3-dimethyl-4-piperidyl]-1,3-benzothiazol-5-yl]-1-piperidyl]acetamide], the IC50 in experiment [1] is below 100 nM; in experiment [2] it was below 1000 nM; on PRMT5 [3], below 50 nM; on PRMT5 [4] it was below 50 nM; on PRMT5 [5], below 50 nM; in experiment [6] (setting [9]) it was below 100 nM. For the same molecule, the MTAP intact/deleted ratio entry in experiment [6] (setting [10]) was “B (an IC50 ratio greater than or equal to 3 fold but lower than 10 fold)”.
